Read-outs that look alike come from different tables or passages of the source.
Key:
Format in all cases: cell-based
HIV-1 (IIIB) = test: Inhibition of HIV-1 (IIIB)-induced cytopathicity (giant cell formation) in CEM cells
Description: (§1) A variety of glycopeptide antibiotic derivatives of vancomycin, eremomycin and teicoplanin including their aglycon derivatives were evaluated for their inhibitory activity against HIV-1 (IIIB) and HIV-2(ROD) in CEM cell cultures.

HIV-2(ROD) = test: Inhibition of HIV-2 (ROD)-induced cytopathicity (giant cell formation) in CEM cells; conditions: read-out: EC50 HIV-2 (concentration required to inhibit HIV-induced giant cell formation by 50%); HIV-2, CEM cell cultures
Description: as §1

murine leukemia L1210 = test: Cytostatic activity assay, L1210 cells; conditions: read-out: IC50 L1210 (compound concentration required to inhibit tumor cell proliferation by 50%)
[1] = system: human lymphocyte Molt4/clone 8; test: Cytostatic activity assay, Molt4/clone 8 cells; conditions: read-out: IC50 Molt4/C8 (compound concentration required to inhibit tumor cell proliferation by 50%)
human lymphocyte CEM = test: Cytostatic activity assay, CEM cells; conditions: read-out: IC50 CEM (compound concentration required to inhibit tumor cell proliferation by 50%)
[2] = read-out: EC50 HIV-1 (concentration required to inhibit HIV-induced giant cell formation by 50%), HIV-1, CEM cell cultures

Compound | EC50 (HIV-1 (IIIB); HIV-1 (IIIB), CEM cell cultures, read-out: EC50 against HIV-1) | EC50 (HIV-1 (IIIB); [2]) | EC50 (HIV-2(ROD)) | IC50 (murine leukemia L1210) | IC50 [1] | IC50 (human lymphocyte CEM)
CCCCCCCCCC[N+](C)(C)CCCNC(=O)C1NC(=O)C2NC(=O)C(NC(=O)C3NC(=O)C(CC(N)=O)NC(=O)C(NC(=O)C(CC(C)C)NC)C(O)c4ccc(c(Cl)c4)Oc4cc3cc(c4OC3OC(CO)C(O)C(O)C3OC3CC(C)(N)C(O)C(C)O3)Oc3ccc(cc3Cl)C2O)c2ccc(O)c(c2)-c2c(O)cc(O)cc21 (stereo not shown) [Compound 2] | 12 µM | 5.5 ± 0.7 µM | > 50 µM | 60 ± 8 µM | 53 ± 1 µM | 172 ± 15 µM
CCCCc1ccc(CNCc2c(O)cc3c(c2O)-c2cc(ccc2O)C2NC(=O)C4NC(=O)C(CC(N)=O)NC(=O)C(NC(=O)C(CC(C)C)NC)C(O)c5ccc(c(Cl)c5)Oc5cc4cc(c5OC4OC(CO)C(O)C(O)C4OC4CC(C)(N)C(O)C(C)O4)Oc4ccc(cc4)C(OC4CC(C)(N)C(O)C(C)O4)C(NC2=O)C(=O)NC3C(=O)NC)cc1 (stereo not shown) [Compound 3] |  | 5.1 ± 3.3 µM | 20 µM | 22 ± 0.3 µM | 24 ± 18 µM | 95 ± 14.1 µM
CCCCCCCCCC[N+](C)(C)CCCNCc1c(O)cc2c(c1O)-c1cc(ccc1O)C1NC(=O)C3NC(=O)C(CC(N)=O)NC(=O)C(NC(=O)C(CC(C)C)NC)C(O)c4ccc(c(Cl)c4)Oc4cc3cc(c4OC3OC(CO)C(O)C(O)C3OC3CC(C)(N)C(O)C(C)O3)Oc3ccc(cc3)C(OC3CC(C)(N)C(O)C(C)O3)C(NC1=O)C(=O)NC2C(=O)NCCCN(C)C (stereo not shown) [Compound 4] |  | 7 µM | > 20 µM | 16 ± 6 µM | 33 ± 5 µM | 27 ± 7 µM
CNC1C(=O)NC2Cc3ccc(cc3)Oc3cc4cc(c3OC3OC(C(=O)NCCC[N+](C)(C)Cc5ccc(-c6ccccc6)cc5)C(O)C(O)C3N)Oc3ccc(cc3Cl)C(O)C3NC(=O)C(NC(=O)C4NC(=O)C(NC2=O)c2cc(cc(O)c2Cl)Oc2cc1ccc2O)c1ccc(O)c(c1)-c1c(OC2OC(CO)C(O)C(O)C2O)cc(O)cc1C(C(=O)NCCC[N+](C)(C)Cc1ccc(-c2ccccc2)cc1)NC3=O (stereo not shown) [Compound 10] |  | 4 ± 1.4 µM | > 10 µM | 44 ± 2.9 µM | 27 ± 14 µM | 32 ± 5 µM
CCCCOc1ccc(CNC2C(Oc3c4cc5cc3Oc3ccc(cc3Cl)C(O)C3NC(=O)C(NC(=O)C5NC(=O)C5NC(=O)C(Cc6ccc(cc6)O4)NC(=O)C(N(C)Cc4ccc(OCCCC)cc4)c4ccc(O)c(c4)Oc4cc(O)c(Cl)c5c4)c4ccc(O)c(c4)-c4c(O)cc(O)cc4C(C(=O)NCCCN(C)C)NC3=O)OC(C(=O)NCCCN(C)C)C(O)C2O)cc1 (stereo not shown) [Compound 11] |  | 5 ± 0.7 µM | > 10 µM | 20 ± 7.5 µM | 18 ± 2.5 µM | 80 ± 6 µM
CCCCc1ccc(CNC2C(Oc3c4cc5cc3Oc3ccc(cc3Cl)C(O)C3NC(=O)C(NC(=O)C5NC(=O)C5NC(=O)C(Cc6ccc(cc6)O4)NC(=O)C(NC)c4ccc(O)c(c4)Oc4cc(O)c(Cl)c5c4)c4ccc(O)c(c4)-c4c(O)cc(O)cc4C(C(=O)NCCCN(C)C)NC3=O)OC(C(=O)NCCCN(C)C)C(O)C2O)cc1 (stereo not shown) [Compound 12] |  | 12 ± 3.5 µM | > 50 µM | 36 ± 14 µM | 66 ± 20 µM | > 250 µM
CCCCCCCCCC[N+](C)(C)CCCNCc1c(O)cc2c(c1O)-c1cc(ccc1O)C1NC(=O)C3NC(=O)C4NC(=O)C(Cc5ccc(cc5)Oc5cc3cc(c5OC3OC(C(=O)NCCCN(C)C)C(O)C(O)C3N)Oc3ccc(cc3Cl)C(O)C(NC1=O)C(=O)NC2C(=O)NCCCN(C)C)NC(=O)C(NC)c1ccc(O)c(c1)Oc1cc(O)c(Cl)c4c1 (stereo not shown) [Compound 14] |  | 3.5 ± 0.7 µM | ≥ 20 µM | 27 ± 0.3 µM | 22 ± 4.7 µM | 92 ± 5 µM
CCCCCCCCCCNCc1c(O)cc2c(c1O)-c1cc(ccc1O)C1NC(=O)C3NC(=O)C4NC(=O)C(Cc5ccc(c(Cl)c5)Oc5cc3cc(c5O)Oc3ccc(cc3Cl)C(O)C(NC1=O)C(=O)NC2C(=O)NCCCN1CCCCC1C)NC(=O)C(N)c1ccc(O)c(c1)Oc1cc(O)cc4c1 (stereo not shown) [Compound 22] |  | 1.3 ± 0.92 µM | 7 µM | 57 ± 15 µM | 182 ± 31 µM | 211 ± 1 µM
CCCCCCCCCCNC(=O)C(N)CCCCNC(=O)C1NC(=O)C2NC(=O)C(NC(=O)C3NC(=O)C4NC(=O)C(Cc5ccc(c(Cl)c5)Oc5cc3cc(c5O)Oc3ccc(cc3Cl)C2O)NC(=O)C(N)c2ccc(O)c(c2)Oc2cc(O)cc4c2)c2ccc(O)c(c2)-c2c(O)cc(O)cc21 (stereo not shown) [Compound 23] |  | 2.6 ± 2 µM | 5.5 ± 0.7 µM | 5.7 ± 0.27 µM | 22 ± 22 µM | 58 ± 35 µM
C[N+](C)(C)CCCNC(=O)C1NC(=O)C2NC(=O)C(NC(=O)C3NC(=O)C4NC(=O)C(Cc5ccc(c(Cl)c5)Oc5cc3cc(c5O)Oc3ccc(cc3Cl)C2O)NC(=O)C(N)c2ccc(O)c(c2)Oc2cc(O)cc4c2)c2ccc(O)c(c2)-c2c1cc(O)c(CN1CCN(Cc3ccc(-c4ccccc4)cc3)CC1)c2O (stereo not shown) [Compound 29] |  | 4.5 ± 0.7 µM | 22 ± 3.5 µM | 26 ± 8.1 µM | 35 ± 8.2 µM | > 250 µM
CCCCCCCCCC[N+](C)(C)CCCNCc1c(O)cc2c(c1O)-c1cc(ccc1O)C1NC(=O)C3NC(=O)C4NC(=O)C(Cc5ccc(c(Cl)c5)Oc5cc3cc(c5O)Oc3ccc(cc3Cl)C(O)C(NC1=O)C(=O)NC2C(=O)NCCCN(C)C)NC(=O)C(N)c1ccc(O)c(c1)Oc1cc(O)cc4c1 (stereo not shown) [Compound 34] |  | 2.7 ± 1.84 µM | 4.5 ± 0.7 µM | 23 ± 11 µM | 68 ± 1 µM | 50 ± 8 µM
CCCCCCCCCC[N+]1(C)CCN(Cc2c(O)cc3c(c2O)-c2cc(ccc2O)C2NC(=O)C4NC(=O)C5NC(=O)C(Cc6ccc(c(Cl)c6)Oc6cc4cc(c6O)Oc4ccc(cc4Cl)C(O)C(NC2=O)C(=O)NC3C(=O)NCCCN(C)C)NC(=O)C(N)c2ccc(O)c(c2)Oc2cc(O)cc5c2)CC1 (stereo not shown) [Compound 38] |  | 2.1 ± 0.92 µM | 10 µM | 51 ± 9 µM | 91 ± 13 µM | > 100 µM
CCCCCCCCCC[N+](C)(C)CCCNCc1c(O)cc2c(c1O)-c1cc(ccc1O)C1NC(=O)C3NC(=O)C4NC(=O)C(Cc5ccc(c(Cl)c5)Oc5cc3cc(c5O)Oc3ccc(cc3Cl)C(O)C(NC1=O)C(=O)NC2C(=O)NCCCCCCN)NC(=O)C(N)c1ccc(O)c(c1)Oc1cc(O)cc4c1 (stereo not shown) [Compound 42] |  | 1.8 ± 0.49 µM | 7 µM | 38 ± 1 µM | 72 ± 6 µM | 66 ± 2 µM
NCCCCCCCCCCNC(=O)C1NC(=O)C2NC(=O)C(NC(=O)C3NC(=O)C4NC(=O)C(Cc5ccc(c(Cl)c5)Oc5cc3cc(c5O)Oc3ccc(cc3Cl)C2O)NC(=O)C(N)c2ccc(O)c(c2)Oc2cc(O)cc4c2)c2ccc(O)c(c2)-c2c(O)cc(O)cc21 (stereo not shown) [Compound 43] |  | 6.5 ± 0.7 µM | 12.5 ± 3.5 µM | ≥ 500 µM | 225 ± 8 µM | 402 ± 138 µM
C[C@@H](NC(=O)[C@@H](C)NC(=O)CCCCCNC(=O)C1NC(=O)C2NC(=O)C(NC(=O)C3NC(=O)C4NC(=O)C(Cc5ccc(c(Cl)c5)Oc5cc3cc(c5O)Oc3ccc(cc3Cl)C2O)NC(=O)C(NC(=O)OC(C)(C)C)c2ccc(O)c(c2)Oc2cc(O)cc4c2)c2ccc(O)c(c2)-c2c(O)cc(O)cc21)C(=O)O (stereo partly shown) [Compound 44] |  | 12.5 ± 3.5 µM | 25 ± 7 µM | > 500 µM | > 500 µM | > 500 µM
CNCc1c(O)cc2c(c1O)-c1cc(ccc1O)C1NC(=O)C3NC(=O)C4NC(=O)C(Cc5ccc(c(Cl)c5)Oc5cc3cc(c5O)Oc3ccc(cc3Cl)C(O)C(NC1=O)C(=O)NC2C(=O)NC)NC(=O)C(N)c1ccc(O)c(c1)Oc1cc(O)cc4c1 (stereo not shown) [Compound 45] |  | 15 ± 7.1 µM | 17.5 ± 10.6 µM | > 500 µM | > 500 µM | > 500 µM
CCCCc1ccc(CNCc2c(O)cc3c(c2O)-c2cc(ccc2O)C2NC(=O)C4NC(=O)C5NC(=O)C(Cc6ccc(c(Cl)c6)Oc6cc4cc(c6O)Oc4ccc(cc4Cl)C(O)C(NC2=O)C(=O)NC3C(=O)NC)NC(=O)C(N)c2ccc(O)c(c2)Oc2cc(O)cc5c2)cc1 (stereo not shown) [Compound 48] |  | 9.7 ± 9 µM | 12.3 ± 6.8 µM | > 100 µM | > 100 µM | > 100 µM
O=C(NC1C(=O)NC2Cc3ccc(c(Cl)c3)Oc3cc4cc(c3O)Oc3ccc(cc3Cl)C(O)C3NC(=O)C(NC(=O)C4NC(=O)C(NC2=O)c2cc(O)cc(c2)Oc2cc1ccc2O)c1ccc(O)c(c1)-c1c(O)cc(O)cc1C(C(=O)O)NC3=O)OC12CC3CC(CC(C3)C1)C2 (stereo not shown) [Compound 49] |  | 13 ± 9.9 µM | 6 ± 1.4 µM | 22 ± 0.1 µM | 25 ± 0.99 µM | 104 ± 3 µM
CNC(CC(C)C)C(=O)NC1C(=O)NC(CC(N)=O)C(=O)NC2C(=O)NC3C(=O)NC(C(=O)NC(C(=O)O)c4cc(O)cc(O)c4-c4cc3ccc4O)C(O)c3ccc(cc3)Oc3cc2cc(c3O)Oc2ccc(cc2Cl)C1O (stereo not shown) [Eremomycin aglycon] |  | 50 ± 28 µM | 250 µM | > 500 µM | > 500 µM | > 500 µM
CN[C@H](CC(C)C)C(=O)N[C@H]1C(=O)N[C@@H](CC(N)=O)C(=O)N[C@H]2C(=O)N[C@H]3C(=O)N[C@H](C(=O)N[C@H](C(=O)O)c4cc(O)cc(O)c4-c4cc3ccc4O)[C@H](O)c3ccc(c(Cl)c3)Oc3cc2cc(c3O)Oc2ccc(cc2Cl)[C@H]1O [Vancomycin aglycon] |  | 65 ± 7.1 µM | 250 µM | > 500 µM | > 500 µM | > 500 µM
Teicoplanin [reference compound] |  | 18 ± 3.5 µM | 100 µM | > 500 µM | > 500 µM | > 500 µM

Source: patent US20050250677A1, “Glycopeptide antibiotic derivatives” (priority 2002, published 2005)
